Reference: the NIST ThermoML archive (doi:10.1016/j.tca.2018.11.010)
± gives the expanded uncertainty stated by the source.

Experiment: wn = mass fraction of the nth substance listed
Details: 298 K; 100 kPa; Liquid; Laser flash apparatus; w1 = 0.9

Question: Which thermal conductivity does the source give for CCCCCCCC/C=C\CCCCCCCC(=O)O [(Z)-9-octadecenoic acid] + CCCCCCCCCCCCCC(=O)O here?
Answer: The thermal conductivity was 0.2513 ± 0.0057 W/m/K.
